Data published in the supplement of paper PMC11061612.

Experiments:
Assay in all cases: Bliss excess, mean over the matrix (fraction); higher = more synergy
[1] = system: CAL-148 (Breast Carcinoma)
Summary of the method: (§1)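 Bliss excess equals the observed combination effect minus the expected value EA + EB − EA·EB, where EA and EB are the effects of each agent alone. Combination Emax is the second-highest inhibition within the matrix. Inhibition was scaled from CellTiter-Glo 2.0 luminescence, with 0 set by vehicle wells and 1 by blank wells, after 72 hours of two-drug dosing of cells plated in 1536-well plates.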

[2] = system: CCRF-CEM (T-Lymphoblastic Leukemia)
Summary of the method: as §1

[3] = system: COLO-205 (Colorectal Carcinoma)
Summary of the method: as §1

[4] = system: CaR-1 (Colorectal Carcinoma)
Summary of the method: as §1

[5] = system: DEL (T-Cell Non-Hodgkin's Lymphoma)
Summary of the method: as §1

[6] = system: Daoy (Other Solid Carcinomas)
Summary of the method: as §1

[7] = system: HCC1806 (Breast Carcinoma)
Summary of the method: as §1

HOS (Osteosarcoma) = system: HOS (Osteosarcoma)
Summary of the method: as §1

[8] = system: HT-1376 (Bladder Carcinoma)
Summary of the method: as §1

[9] = system: Hs-578-T (Breast Carcinoma)
Summary of the method: as §1

[10] = system: HuP-T4 (Pancreatic Carcinoma)
Summary of the method: as §1

[11] = system: KP-1N (Pancreatic Carcinoma)
Summary of the method: as §1

[12] = system: LU-135 (Small Cell Lung Carcinoma)
Summary of the method: as §1

[13] = system: ME-1 (Acute Myeloid Leukemia)
Summary of the method: as §1

[14] = system: NCI-H2085 (Non-Small Cell Lung Carcinoma)
Summary of the method: as §1

[15] = system: RO82-W-1 (Thyroid Gland Carcinoma)
Summary of the method: as §1

[16] = system: Ramos-2G6-4C10 (Burkitt's Lymphoma)
Summary of the method: as §1

T98G (Glioblastoma) = system: T98G (Glioblastoma)
Summary of the method: as §1

[17] = system: TCCSUP (Bladder Carcinoma)
Summary of the method: as §1

[18] = system: UM-UC-3 (Bladder Carcinoma)
Summary of the method: as §1

SMILES	Bliss excess [1]	Bliss excess [2]	Bliss excess [3]	Bliss excess [4]	Bliss excess [5]	Bliss excess [6]	Bliss excess [7]	Bliss excess (HOS (Osteosarcoma))	Bliss excess [8]	Bliss excess [9]	Bliss excess [10]	Bliss excess [11]	Bliss excess [12]	Bliss excess [13]	Bliss excess [14]	Bliss excess [15]	Bliss excess [16]	Bliss excess (T98G (Glioblastoma))	Bliss excess [17]	Bliss excess [18]
Cn1cnc2c(F)c(Nc3ccc(Br)cc3Cl)c(C(=O)NOCCO)cc21 [Selumetinib] + CC(C)n1c(=O)n(C)c2cnc3cc(F)c(-c4ccc(OCCCN5CCCCC5)nc4)cc3c21 [AZD1390] (first compound max 10 µM, 7x7, partner max 0.3 µM)	-0.0421	-0.0131	-0.0209	-0.041	0.0087	-0.021	-0.0029	-0.0404	-0.0416	-0.0426	-0.0086	-0.0532	-0.0318	0.0338	-0.06	-0.034	-0.0211	-0.0125	-0.0588	-0.0205
CN(CCO)CC[C@H](CSc1ccccc1)Nc1ccc(S(=O)(=O)NC(=O)c2ccc(N3CCC([C@@H](O)c4ccccc4-c4ccc(Cl)cc4)CC3)cc2)cc1S(=O)(=O)C(F)(F)F [AZD4320] + C=CCn1c(=O)c2cnc(Nc3ccc(N4CCN(C)CC4)cc3)nc2n1-c1cccc(C(C)(C)O)n1 [AZD1775] (first compound max 1 µM, partner max 1 µM)	-0.0033	0.0065	0.0243	-0.0375	0.0464	-0.0261	0.0043	0.0337	-0.0588	0.022	-0.0368	-0.0325	0.0636	0.0475	-0.0212	-0.0364	0.0808	0.0317	0.0373	-0.0064
CC1(C)CCC(CN2CCN(c3ccc(C(=O)NS(=O)(=O)c4ccc(NCC5CCOCC5)c([N+](=O)[O-])c4)c(Oc4cnc5[nH]ccc5c4)c3)CC2)=C(c2ccc(Cl)cc2)C1 [Venetoclax] + C1CN(CCC1(C(=O)N[C@@H](CCO)C2=CC=C(C=C2)Cl)N)C3=NC=NC4=C3C=CN4 [Capivasertib] (first compound max 1 µM, 7x7, partner max 3 µM)	-0.0444	0.0042	-0.0423	-0.0045	-0.0589	0.0117	-0.0087	-0.0243	-0.0621	-0.0255	-0.033	-0.0193	-0.0429	0	-0.0569	-0.0312	0.0177	-0.0382	-0.0196	0.0009
COc1nnc2ccc(N3CCC(c4ccc(OCCN5CCN(C)C(=O)[C@H]5C)cc4)CC3)nn12 [AZD5153] + Cn1cnc2c(F)c(Nc3ccc(Br)cc3Cl)c(C(=O)NOCCO)cc21 [Selumetinib] (first compound max 1 µM, 7x7, partner max 10 µM)	0.0129	-0.0015	0.0422	0.0208	-0.0896	-0.0253	-0.0233	0.0429	0.0081	-0.0344	0.0621	-0.0417	-0.0138	-0.0302	0.027	0.038	-0.0465	0.0403	-0.0264	0.113
Cc1c2c(nn1C)CSCc1cc(n(C)n1)CSc1cc(c3ccccc3c1)OCCCc1c(C(=O)O)n(C)c3c-2c(Cl)ccc13 [AZD5991] + C1CN(CCC1(C(=O)N[C@@H](CCO)C2=CC=C(C=C2)Cl)N)C3=NC=NC4=C3C=CN4 [Capivasertib] (first compound max 1 µM, 7x7, partner max 3 µM)	0.0486	0.0618	-0.023	-0.0295	-0.012	0.0248	0.0085	-0.0083	-0.01	-0.0866	0.0085	0.0154	-0.0112	0.0415	-0.0334	-0.016	0.0094	-0.0178	0.0229	-0.0231
COc1cc2c(cc1OCCCCCOc1cc3c(cc1OC)C(=O)N1C=C(C)C[C@H]1C=N3)N=C[C@@H]1CC(C)=CN1C2=O [SG3199] + O=C(c1cc(Cc2n[nH]c(=O)c3ccccc23)ccc1F)N1CCN(C(=O)C2CC2)CC1 [Olaparib] (first compound max 0.001 µM, 7x7, partner max 10 µM)	-0.0294	-0.0045	-0.0256	-0.0429	0.0108	-0.0171	-0.0132	-0.0232	-0.0503	-0.0422	-0.0256	0.0163	0.0232	-0.013	-0.0323	-0.0704	-0.0122	-0.0486	-0.0281	-0.0308
NC1(C(=O)N[C@@H](CCO)c2ccc(Cl)cc2)CCN(c2ncnc3[nH]ccc23)CC1 [Capivasertib] + CC(=O)c1c(C)c2cnc(Nc3ccc(N4CCNCC4)cn3)nc2n(C2CCCC2)c1=O [Palbociclib] (first compound max 10 µM, 7x7, partner max 10 µM)	-0.0215	0.0861	0.0317	0.0034	0.0706	0.0306	0.0075	0.0023	-0.0388	0.0324	-0.0118	0.0023	-0.0357	-0.11	-0.0561	-0.0125	-0.0512	0.0304	0.0372	0.0504
CN(CCO)CC[C@H](CSc1ccccc1)Nc1ccc(S(=O)(=O)NC(=O)c2ccc(N3CCC([C@@H](O)c4ccccc4-c4ccc(Cl)cc4)CC3)cc2)cc1S(=O)(=O)C(F)(F)F [AZD4320] + CN(C)CCCOc1ccc(-c2ccc3ncc4c(c3c2)n(C2CCOCC2)c(=O)n4C)cn1 [AZD0156] (first compound max 1 µM, 7x7, partner max 1 µM)	0.0183	0.023	-0.054	-0.0727	0.0265	0.0118	0.0142	-0.0317	-0.03	-0.0178	-0.0268	-0.0481	0.0332	-0.0069	-0.0242	-0.0258	0.026	-0.044	-0.0227	-0.0219
C=CCn1c(=O)c2cnc(Nc3ccc(N4CCN(C)CC4)cc3)nc2n1-c1cccc(C(C)(C)O)n1 [AZD1775] + C[C@@H]1COCCN1C2=NC(=NC(=C2)C3(CC3)[S@](=N)(=O)C)C4=C5C=CNC5=NC=C4 [AZD6738] (first compound max 1 µM, partner max 10 µM)	-0.034	0.0391	0.141	0.0177	0.0252	0.0863	0.0166	0.106	-0.0483	-0.0127	0.0849	0.0055	-0.0044	-0.0241	0.0147	-0.0916	0.0915	-0.0178	0.0305	0.0606
C=CCn1c(=O)c2cnc(Nc3ccc(N4CCN(C)CC4)cc3)nc2n1-c1cccc(C(C)(C)O)n1 [AZD1775] + O=C(c1cc(Cc2n[nH]c(=O)c3ccccc23)ccc1F)N1CCN(C(=O)C2CC2)CC1 [Olaparib] (first compound max 1 µM, partner max 10 µM)	0.0068	-0.0381	-0.0149	-0.0077	0.0023	0.044	-0.0294	-0.0389	-0.0509	-0.0965	0.0075	-0.0239	-0.0249	-0.0873	-0.0353	-0.0724	-0.0238	-0.113	0.0107	0.0251
CCc1c2c(nc3ccc(O)cc13)-c1cc3c(c(=O)n1C2)COC(=O)[C@]3(O)CC [SN-38] + CN(C)CCCOc1ccc(-c2ccc3ncc4c(c3c2)n(C2CCOCC2)c(=O)n4C)cn1 [AZD0156] (first compound max 0.3 µM, 7x7, partner max 1 µM)	-0.0174	0.0508	0.0073	0.0109	0.117	0.0666	-0.0222	0.0114	-0.0547	0.169	0.0028	0.0531	-0.0201	-0.008	-0.0026	-0.088	0.0361	-0.03	0.0859	0.06
NC1(C(=O)N[C@@H](CCO)c2ccc(Cl)cc2)CCN(c2ncnc3[nH]ccc23)CC1 [Capivasertib] + CC(C)n1c(=O)n(C)c2cnc3cc(F)c(-c4ccc(OCCCN5CCCCC5)nc4)cc3c21 [AZD1390] (first compound max 10 µM, 7x7, partner max 0.3 µM)	-0.0509	-0.0847	-0.0605	-0.0401	0.0336	-0.0281	-0.0732	-0.0278	-0.0399	-0.0363	-0.0978	-0.0767	-0.0242	-0.0319	-0.0564	-0.0236	-0.0205	-0.0652	-0.084	-0.0211
CN(CCO)CC[C@H](CSc1ccccc1)Nc1ccc(S(=O)(=O)NC(=O)c2ccc(N3CCC([C@@H](O)c4ccccc4-c4ccc(Cl)cc4)CC3)cc2)cc1S(=O)(=O)C(F)(F)F [AZD4320] + Cn1cnc2c(F)c(Nc3ccc(Br)cc3Cl)c(C(=O)NOCCO)cc21 [Selumetinib] (first compound max 1 µM, 7x7, partner max 3 µM)	-0.0201	0.0099	0.026	-0.0573	0.103	0.129	0.0605	0.0245	0.0297	-0.0492	0.0393	-0.0277	0.0266	0.0484	0.032	-0.0139	0.138	0.0206	0.0157	-0.0058
Cc1c2c(nn1C)CSCc1cc(n(C)n1)CSc1cc(c3ccccc3c1)OCCCc1c(C(=O)O)n(C)c3c-2c(Cl)ccc13 [AZD5991] + C=CCn1c(=O)c2cnc(Nc3ccc(N4CCN(C)CC4)cc3)nc2n1-c1cccc(C(C)(C)O)n1 [AZD1775] (first compound max 1 µM, partner max 1 µM)	0.0567	-0.0011	-0.0959	-0.0103	-0.0201	0.0375	0.0493	-0.0274	0.0345	-0.0244	-0.0039	-0.0696	-0.0654	0.041	-0.0165	-0.0197	-0.0413	-0.0198	-0.0021	-0.0077
